# Reference: patent US20070243548A1, “Calumenin-directed diagnostics and therapeutics for cancer and chemotherapeutic drug resistance” (priority 2006, published 2007)
# Legend:
# [1] = test system: hematological tumor cells; test: Hematological tumors in MHC-matched mice; format: in vivo
# Experimental: In order to determine whether targeting calumenin is useful in treating a preexisting cancerous condition, MHC-matched mice, 5 to 7 weeks old, receive a subcutaneous (s.c.) injection of 5×10^5 hematological tumor cells, and tumors are allowed to form. Tumor growth starting on the first day of treatment is measured by palpitation, and the volume of the xenograft is monitored every 4 days. Tumors are allowed to grow to a sufficient size (5.5 mm) for appropriate analysis of the effects of calumenin treatment on tumor sensitivity to chemotherapeutic drugs. Mice are then treated with a calumenin siRNA (3 μg daily for 16 days) designed to decrease the level of expression of calumenin. Control mice receive no treatment, treatment with taxol or doxorubicin alone (4 mg/kg daily) or treatment with control siRNA sequences that are not complementary to murine calumenin mRNA (3 μg daily for 16 days for each treatment) in combination with taxol or doxorubicin (4 mg/kg daily). Taxol and doxorubicin can be obtained commercially from Sigma Corp. (St. Louis, Mo.).
# The animal's weight is measured every 4 days. Tumor growth starting on the first day of treatment is measured by palpitation and the volume of the xenograft is monitored every 4 days. The mice are anaesthetized and sacrificed when the mean tumor weight is over 1 g in the control group. Tumor tissue is excised from the mice and its weight is measured. Tumor weights from mice treated with the calumenin siRNA and chemotherapeutic drugs are compared to tumor weights from mice treated with control siRNA and chemotherapeutic drugs. Tumor cell count is determined by trypsinizing tumors in DMEM medium supplemented with 10% fetal bovine serum until cells are in free suspension. Cells are then transferred to 6-well plates for counting. Cell counts are compared. All experiments are performed in triplicate.
# In order to determine whether targeting calumenin is useful in treating a preexisting cancerous condition, MHC-matched mice, 5 to 7 weeks old, receive an s.c. injection of 5×10^5 hematological tumor cells, and tumors are allowed to form. Tumor growth starting on the first day of treatment is measured by palpitation and the volume of the xenograft is monitored every 4 days. Tumors are allowed to grow to a sufficient size (5.5 mm) for appropriate analysis of the effects of calumenin treatment on tumor sensitivity to chemotherapeutic drugs. […]
# The animal's weight is measured every 4 days. Tumor growth starting on the first day of treatment is measured and the volume of the xenograft is monitored every 4 days. […] Tumor tissue is excised from the mice and its weight is measured. […] Tumor cell count is determined by trypsinizing tumors in DMEM medium supplemented with 10% fetal bovine serum until cells are in free suspension. […]
# MCF-7/ADR xenografts = test: Mammary adenocarcinoma MCF-7/ADR xenografts in nude mice; format: in vivo; settings: adenocarcinomas, vs mice treated with control siRNA
# Experimental: In further studies, the efficacy of a calumenin-targeted therapeutic in treating an MDR mammary adenocarcinoma cells (MCF/AR) is assessed. Briefly, male […] nude mice 5 to 7 weeks old, weighing 18 g to 22 g, are used for the MCF-7/ADR xenografts. Mice receive a subcutaneous (s.c.) injection of the cells using 5×10^5 cells/inoculation under the shoulder. When the s.c. tumor is approximately 5.5 mm in size, mice are randomized into treatment groups of 4 including controls and groups receiving taxol or doxorubicin, alone (4 mg/kg), intraperitoneally (i.p.) every 2 days, calumenin siRNA alone (3 μg daily for 16 days), or both taxol and calumenin siRNA (3 μg daily for 16 days for each treatment). […] The animal's weight is measured every 4 days. Tumor growth starting on the first day of treatment is measured and the volume of the xenograft is monitored every 4 days. […] Tumor tissue is excised from the mice and its weight is measured. […]
# In further studies, the efficacy of a calumenin-targeted therapeutic in treating a mammary adenocarcinoma cells (MCF-7) is assessed. […] The animal's weight is measured every 4 days. Tumor growth starting on the first day of treatment is measured and the volume of the xenograft is monitored every 4 days. […] Tumor tissue is excised from the mice and its weight is measured. […]
substance,measurement,setting,value
"Calumenin siRNA: siRNA duplex targeting human calumenin mRNA; sense 5′-GAAGGACCGUGUACAUCAU-3′ (SEQ ID NO: 1), anti-sense 5′-AUGAUGUACACGGUCCUUC-3′ (SEQ ID NO: 2), 3′TT overhangs (3' TT overhangs on both strands, further chemistry not given here)","prognosis (i.e., smaller tumor or fewer tumor cells)",[1]; composition vs only the targeting agent or only the chemotherapeutic drug,better prognosis
same,total cell number in tumors,"[1]; hematological cancers, vs mice treated with control siRNA",lower
same,tumors by weight,"[1]; hematological cancers, vs mice treated with control siRNA, 3 μg siRNA daily for 16 days",smaller
same,sensitivity of tumors to chemotherapeutic drug treatment regimes,[1]; hematological tumors in mice,increases
same,total cell number in tumors,MCF-7/ADR xenografts,lower
same,tumors by weight,MCF-7/ADR xenografts; 3 μg siRNA daily for 16 days,smaller
